Measurements taken from patent US20250388574A1, “HETEROCYCLIC COMPOUNDS AS TRIGGERING RECEPTOR EXPRESSED ON MYELOID CELLS 2 AGONISTS AND METHODS OF USE” (AMGEN INC., priority 2020, published 2025).

Biological target: hTREM2 (Homo sapiens, UniProt Q9NZC2)
Test: Phospho-Syk AlphaScreen/AlphaLISA assay in TREM2 and DAP12 overexpressing HEK293 cells (Example A1)
Assay type: cell-based
Set-up: expressed in transfected cells
Conditions: HEK293 cells; for EC50: read-out: hTREM2 EC50
Experimental: Pharmacological measurements of TREM2 signaling through DAP12 were made with TREM2 and DAP12 overexpressing HEK293 cells stable cell lines that had been single-cell cloned (“TREM2/DAP12-HEK”). The readout of the TREM2 signaling utilized Perkin Elmer AlphaScreen/AlphaLISA technology monitoring the phosphorylation levels of the Syk kinase. TREM2/DAP12-HEK cell lines were cultured in DMEM-F12 (Corning 10-092-CM) supplemented with 1× Penicillin/Streptomycin (Corning 30-002-CI), 1× GlutaMAX (Gibco 35050-061), and 10% Fetal Bovine Serum (Life Technologies 10099) referred to as “HEK Culture Medium”. Suspensions of TREM2/DAP12-HEK cells were prepared in HEK Culture Medium and dispensed into 384-well poly-D-lysine coated microplates (Corning 354661) at a density of 20,000 cells/well using a Multidrop Combi peristaltic microplate dispenser (Thermo), 25 uL volume of cell suspension/well. Plates containing cells were then incubated for 20 hours in a humidified cell culture incubator at 37° C. with 5% CO2 (Thermo). […] Assay Buffer contained diluted test articles (in 1% final DMSO concentration for compounds) or 100 nM anti-human/mouse TREM2 antibody (R&D Systems MAB17291) as a positive control, 100 nM or rat IgG2B isotype Ab as a negative control (R&D Systems MAB0061). Incubated the plates with test articles and controls for 45 minutes at room temperature and then aspirated/removed the medium from each well of the plates. Used a Multidrop Combi peristaltic liquid handler (Thermo) to dispense 15 uL/well of “Cell Lysis Immunoassay Buffer”. The Cell Lysis Immunoassay Buffer contained M-PER Mammalian Protein Extraction Reagent (Pierce/ThermoFisher 78505), 1× Halt Phosphatase Inhibitor Cocktail (ThermoFisher #78427), 0.1875 nM anti-phospho-Syk ([…]/526) ([…]) rabbit mAb (Cell Signaling Technologies catalog #2710), and 1.5 nM biotinylated Mouse anti-human Syk (4D10) antibody (BD Biosciences, catalog #624008). Incubated plates for 1 hour at room temperature after the addition of the Cell Lysis Immunoassay Buffer. Used the Multidrop Combi liquid handler to dispense 15 μL of AlphaScreen Acceptor Bead Solution containing 7.5 μg/mL anti-rabbit IgG (Fc specific) AlphaLISA Acceptor Beads (Perkin Elmer A[…]) in 1× Immunoassay buffer (Perkin Elmer A[…]) to each well of the microplates. Incubated plates for 2 hours at room temperature. Following the incubation with the AlphaLISA Acceptor Bead Solution, used a Multidrop Combi liquid handler (Thermo) to dispense 15 μL of AlphaScreen Donor Bead Solution containing 30 μg/mL of AlphaScreen Streptavidin Donor beads (Perkin Elmer 6760002B) in 1× Immunoassay buffer (Perkin Elmer A[…]) to each well of the microplates. Incubated microplates for 2 hours protected from light sources as the AlphaScreen reagents are light sensitive. Once the final incubation was completed, acquired AlphaScreen signal from the donor and acceptor beads using an Envision high throughput multi-modal microplate reader (Perkin Elmer) calibrated to the plate type with the AlphaScreen mirror and filter-set in 384-well mode, 680 nanometer excitation wavelength. The total measurement time per well was 550 milliseconds with a 180 millisecond excitation time. After reading the AlphaScreen signal for each well of the microplates, on a plate-by-plate basis, each raw test article well value (x) was normalized to a Percent of Control (“POC”) value using the following formula: […] Each plate contained 12 of each type of control wells that were used to generate the mean values. For concentration response curve analysis with test articles tested at various concentrations, the % of activation values were analyzed with 4 Parameter Logistic or Sigmoidal Dose-Response Models using GeneData Screener (GeneData, AG) or GraphPad Prism 7 (Graphpad Software, Inc.). […] This assay may be used to test any of the compounds described herein to assess and characterize a compound's ability to act as an agonist of TREM2.

Sequence of hTREM2 (Q9NZC2 19-230): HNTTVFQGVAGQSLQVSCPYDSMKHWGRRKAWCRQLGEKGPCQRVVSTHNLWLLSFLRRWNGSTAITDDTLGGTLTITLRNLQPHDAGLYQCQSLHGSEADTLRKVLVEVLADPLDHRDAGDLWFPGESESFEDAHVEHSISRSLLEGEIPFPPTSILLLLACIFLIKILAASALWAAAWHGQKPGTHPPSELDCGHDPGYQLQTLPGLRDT
Sequence of hTREM2 (O43914 22-113 partner): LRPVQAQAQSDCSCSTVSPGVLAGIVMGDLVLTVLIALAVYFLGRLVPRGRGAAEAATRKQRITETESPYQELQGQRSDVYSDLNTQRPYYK

Emax	EC50 [nM]	Compound
+++ (Emax>200 and ≤300)	50 to 500	Cc1nc2cc(C3=CC(c4cnn(C)c4)OCC3)nc(-c3ccc(Cl)cc3F)c2c(=O)n1C (racemic) [Example 164, 5-(4-chloro-2-fluorophenyl)-2,3-dimethyl-7-(6-(1-methyl-1H-pyrazol-4-yl)-3,6-dihydro-2H-pyran-4-yl)pyrido[4,3-d]pyrimidin-4(3H)-one]
++++ (Emax>300)	500 to 3000	Cc1nc2cc([C@@H]3CCO[C@@H](c4cccnc4)C3)nc(-c3ccc(Cl)cc3F)c2c(=O)n1C (relative stereo) [Example 176, 5-(4-chloro-2-fluorophenyl)-2,3-dimethyl-7-((2R,4R)-2-(3-pyridinyl)tetrahydro-2H-pyran-4-yl)pyrido[4,3-d]pyrimidin-4(3H)-one and 5-(4-chloro-2-fluorophenyl)-2,3-dimethyl-7-((2S,4S)-2-(3-pyridinyl)tetrahydro-2H-pyran-4-yl)pyrido[4,3-d]pyrimidin-4(3H)-one]
	500 to 3000	Cc1nc2cc(N3CCO[C@H]([C@@H]4CCOC4)C3)nc(-c3ccc(Cl)cc3F)c2c(=O)n1C (single isomer, unassigned) [Example 45]
++++ (Emax>300)	50 to 500	Cc1nc2cc(N3CCO[C@@H](c4cccnc4)C3)nc(-c3ccc(Cl)cc3F)c2c(=O)n1C (single isomer, unassigned) [Example 46]
++++ (Emax>300)	3000 to 100000	Cc1nc2cc(N3CCO[C@H](c4cccnc4)C3)nc(-c3ccc(Cl)cc3F)c2c(=O)n1C (single isomer, unassigned) [Example 47]
+++ (Emax>200 and ≤300)	500 to 3000	Cc1nc2cc(N3CCO[C@H](c4ccncc4)C3)nc(-c3ccc(Cl)cc3F)c2c(=O)n1C (single isomer, unassigned) [Example 48]
++++ (Emax>300)	< 50	Cc1nc2cc(N3CCO[C@@H](c4ccncc4)C3)nc(-c3ccc(Cl)cc3F)c2c(=O)n1C (single isomer, unassigned) [Example 49]
++++ (Emax>300)	50 to 500	Cc1nc2cc(N3CCO[C@H](c4ccsc4)C3)nc(-c3ccc(Cl)cc3F)c2c(=O)n1C (single isomer, unassigned) [Example 54]
++++ (Emax>300)	500 to 3000	Cc1nc2cc(N3CCO[C@@H](c4ccsc4)C3)nc(-c3ccc(Cl)cc3F)c2c(=O)n1C (single isomer, unassigned) [Example 55]
+++ (Emax>200 and ≤300)	3000 to 100000	Cc1nc([C@H]2CN(c3cc4nc(C)n(C)c(=O)c4c(-c4ccc(Cl)cc4F)n3)CCO2)no1 (single isomer, unassigned) [Example 56]

Second part, the compound before the results:

Compound	Emax	EC50 [nM]
5-(4-chloro-2-fluorophenyl)-2,3-dimethyl-7-((2R,4R)-2-(1-methyl-1H-pyrazol-4-yl)tetrahydro-2H-pyran-4-yl)pyrido[4,3-d]pyrimidin-4(3H)-one and 5-(4-chloro-2-fluorophenyl)-2,3-dimethyl-7-((2S,4S)-2-(1-methyl-1H-pyrazol-4-yl)tetrahydro-2H-pyran-4-yl)pyrido[4,3-d]pyrimidin-4(3H)-one [Example 161]	+++ (Emax>200 and ≤300)	500 to 3000
CCn1cc([C@H]2CN(c3cc4nc(C)n(C)c(=O)c4c(-c4ccc(Cl)cc4F)n3)CCO2)cn1 (single isomer, unassigned) [Example 23]	++++ (Emax>300)	< 50
CCn1cc([C@@H]2CN(c3cc4nc(C)n(C)c(=O)c4c(-c4ccc(Cl)cc4F)n3)CCO2)cn1 (single isomer, unassigned) [Example 24]	++++ (Emax>300)	50 to 500
Cc1nc2cc(N3C[C@H](c4cnn(C)c4)OC[C@H]3C)nc(-c3ccc(Cl)cc3F)c2c(=O)n1C (single isomer, unassigned) [Example 25]	+++ (Emax>200 and ≤300)	500 to 3000
Cc1nc2cc(N3C[C@@H](c4cnn(C)c4)OC[C@H]3C)nc(-c3ccc(Cl)cc3F)c2c(=O)n1C (single isomer, unassigned) [Example 26]	+++ (Emax>200 and ≤300)	500 to 3000
Cc1nc2cc(N3C[C@@H](C)O[C@H](c4cnn(C)c4)C3)nc(-c3ccc(Cl)cc3F)c2c(=O)n1C (single isomer, unassigned) [Example 27]	++++ (Emax>300)	50 to 500
Cc1nc2cc(N3C[C@@H](C)O[C@@H](c4cnn(C)c4)C3)nc(-c3ccc(Cl)cc3F)c2c(=O)n1C (single isomer, unassigned) [Example 28]	+++ (Emax>200 and ≤300)	< 50
Cc1nc2cc(N3C[C@@H](c4cnn(C)c4)O[C@@H](C)C3)nc(-c3ccc(Cl)cc3F)c2c(=O)n1C (single isomer, unassigned) [Example 29]	+++ (Emax>200 and ≤300)	500 to 3000
Cc1nc2cc(N3C[C@H](C)O[C@@H](c4cnn(C)c4)C3)nc(-c3ccc(Cl)cc3F)c2c(=O)n1C (single isomer, unassigned) [Example 30]	+++ (Emax>200 and ≤300)	500 to 3000
Cc1nc2cc(N3C[C@@H](C)O[C@@H](C4CC4)C3)nc(-c3ccc(Cl)cc3F)c2c(=O)n1C (single isomer, unassigned) [Example 34]	++++ (Emax>300)	500 to 3000
Cc1nc2cc(N3C[C@H](C)O[C@@H](C4CC4)C3)nc(-c3ccc(Cl)cc3F)c2c(=O)n1C (single isomer, unassigned) [Example 35]	+++ (Emax>200 and ≤300)	500 to 3000
Cc1nc2cc(N3C[C@@H](C)O[C@H](C4CC4)C3)nc(-c3ccc(Cl)cc3F)c2c(=O)n1C (single isomer, unassigned) [Example 36]	+++ (Emax>200 and ≤300)	3000 to 100000
Cc1nc2cc(N3C[C@@H](C4CC4)O[C@@H](C)C3)nc(-c3ccc(Cl)cc3F)c2c(=O)n1C (single isomer, unassigned) [Example 37]	++++ (Emax>300)	50 to 500
Cc1nc2cc(N3CCO[C@@H]([C@H]4CCO4)C3)nc(-c3ccc(Cl)cc3F)c2c(=O)n1C (single isomer, unassigned) [Example 38]	+++ (Emax>200 and ≤300)	500 to 3000
Cc1nc2cc(N3CCO[C@@H]([C@@H]4CCO4)C3)nc(-c3ccc(Cl)cc3F)c2c(=O)n1C (single isomer, unassigned) [Example 39]	+++ (Emax>200 and ≤300)	500 to 3000
Cc1nc2cc(N3CCO[C@H]([C@@H]4CCO4)C3)nc(-c3ccc(Cl)cc3F)c2c(=O)n1C (single isomer, unassigned) [Example 40]	+++ (Emax>200 and ≤300)	500 to 3000
Cc1nc2cc(N3CCO[C@H]([C@H]4CCO4)C3)nc(-c3ccc(Cl)cc3F)c2c(=O)n1C (single isomer, unassigned) [Example 41]	+++ (Emax>200 and ≤300)	500 to 3000
Cc1nc2cc(N3CCO[C@@H]([C@H]4CCOC4)C3)nc(-c3ccc(Cl)cc3F)c2c(=O)n1C (single isomer, unassigned) [Example 42]	++++ (Emax>300)	50 to 500
Cc1nc2cc(N3CCO[C@H]([C@H]4CCOC4)C3)nc(-c3ccc(Cl)cc3F)c2c(=O)n1C (single isomer, unassigned) [Example 43]	+++ (Emax>200 and ≤300)	50 to 500
Cc1nc2cc(N3CCO[C@@H]([C@@H]4CCOC4)C3)nc(-c3ccc(Cl)cc3F)c2c(=O)n1C (single isomer, unassigned) [Example 44]	+++ (Emax>200 and ≤300)	50 to 500
